Measurements from a compilation of properties of binary mixtures (doi:10.1021/jp3012602).

Assay: xn = mol fraction of the nth substance listed
Settings: 101 kPa

CC[n+]1ccn(C)c1.O=S(=O)([N-]S(=O)(=O)C(F)(F)F)C(F)(F)F + CCC[N+]1(C)CCCC1.O=S(=O)([N-]S(=O)(=O)C(F)(F)F)C(F)(F)F
x1 = 1
Settings | electrical conductivity [S/m] | viscosity [mPa·s]
293.15 K | 0.752 | –
313.15 K | 1.35 | 19.9
333.15 K | 2.1 | 12
353.15 K | 3.05 | 7.97

CCC[N+]1(C)CCCC1.N#C[N-]C#N + CCC[N+]1(C)CCCC1.O=S(=O)([N-]S(=O)(=O)C(F)(F)F)C(F)(F)F
Settings | electrical conductivity, 293.15 K [S/m] | electrical conductivity, 313.15 K [S/m] | electrical conductivity, 333.15 K [S/m] | viscosity, 293.15 K [mPa·s] | viscosity, 313.15 K [mPa·s] | viscosity, 333.15 K [mPa·s] | viscosity, 353.15 K [mPa·s]
x1 = 0.25 | 0.44 | 0.842 | – | 63.1 | 29.7 | – | 10.4
x1 = 0.5 | 0.733 | 1.34 | 2.16 | 51 | 25.3 | 14.8 | 9.58
x1 = 0.75 | 0.982 | 1.75 | – | 44.9 | 21.6 | – | 8.66
x1 = 1 | 1.57 | 2.67 | 4.44 | – | 18.6 | 11.7 | 7.95

CCC[N+]1(C)CCCC1.O=S(=O)([N-]S(=O)(=O)C(F)(F)F)C(F)(F)F + CCCCCCCCCCCCCC[P+](CCCCCC)(CCCCCC)CCCCCC.O=S(=O)([N-]S(=O)(=O)C(F)(F)F)C(F)(F)F
Settings | electrical conductivity, 293.15 K [S/m] | electrical conductivity, 313.15 K [S/m] | electrical conductivity, 333.15 K [S/m] | electrical conductivity, 353.15 K [S/m] | viscosity, 293.15 K [mPa·s] | viscosity, 313.15 K [mPa·s] | viscosity, 333.15 K [mPa·s] | viscosity, 353.15 K [mPa·s]
x2 = 0 | 0.32 | 0.678 | 1.18 | 1.76 | – | 34.5 | 18.8 | 11.6
x2 = 0.5 | 0.0216 | 0.0565 | 0.12 | 0.223 | 322 | 117 | 51.8 | 26.7
x2 = 0.75 | 0.0113 | – | 0.0688 | 0.146 | 368 | – | 61.9 | 29.2

CCC[N+]1(C)CCCC1.O=S(=O)([N-]S(=O)(=O)C(F)(F)F)C(F)(F)F + CC[n+]1ccn(C)c1.O=S(=O)([N-]S(=O)(=O)C(F)(F)F)C(F)(F)F
Settings | electrical conductivity, 293.15 K [S/m] | electrical conductivity, 313.15 K [S/m] | electrical conductivity, 333.15 K [S/m] | electrical conductivity, 353.15 K [S/m] | viscosity, 293.15 K [mPa·s] | viscosity, 313.15 K [mPa·s] | viscosity, 333.15 K [mPa·s] | viscosity, 353.15 K [mPa·s]
x2 = 0 | 0.32 | 0.678 | – | – | – | 34.4 | – | –
x2 = 0.25 | 0.408 | 0.801 | 1.34 | 2 | 63.6 | 29.4 | 16.6 | 10.5
x2 = 0.5 | – | 0.985 | 1.62 | 2.37 | – | 25.8 | 14.9 | 9.57
x2 = 0.75 | 0.633 | 1.16 | 1.85 | 2.66 | 45 | 22.6 | 13.3 | 8.77

CCCCCCCCCCCCCC[P+](CCCCCC)(CCCCCC)CCCCCC.O=S(=O)([N-]S(=O)(=O)C(F)(F)F)C(F)(F)F + CCC[N+]1(C)CCCC1.O=S(=O)([N-]S(=O)(=O)C(F)(F)F)C(F)(F)F
x1 = 1
Settings | electrical conductivity [S/m] | viscosity [mPa·s]
293.15 K | 0.0072 | –
313.15 K | 0.0216 | 150
333.15 K | 0.0473 | 63
353.15 K | 0.0913 | 31.1

CCC[N+]1(C)CCCC1.O=S(=O)([N-]S(=O)(=O)C(F)(F)F)C(F)(F)F + CCC[N+]1(C)CCCC1.N#C[N-]C#N
x2 = 0
Settings | electrical conductivity [S/m] | viscosity [mPa·s]
293.15 K | 0.32 | –
333.15 K | 1.18 | 18.8

CCC[N+]1(C)CCCC1.O=S(=O)([N-]S(=O)(=O)C(F)(F)F)C(F)(F)F + CCCCCC[N+]1(C)CCCC1.O=S(=O)([N-]S(=O)(=O)C(F)(F)F)C(F)(F)F
x2 = 0
Settings | electrical conductivity [S/m] | viscosity [mPa·s]
293.15 K | 0.32 | –
313.15 K | 0.678 | 34.4
333.15 K | 1.18 | 18.8

CCC[N+]1(C)CCCC1.O=S(=O)([N-]S(=O)(=O)C(F)(F)F)C(F)(F)F + CCCC[N+]1(C)CCCC1.O=S(=O)([N-]S(=O)(=O)C(F)(F)F)C(F)(F)F
Settings | electrical conductivity, 293.15 K [S/m] | electrical conductivity, 313.15 K [S/m] | electrical conductivity, 333.15 K [S/m] | electrical conductivity, 353.15 K [S/m] | viscosity, 293.15 K [mPa·s] | viscosity, 313.15 K [mPa·s] | viscosity, 333.15 K [mPa·s] | viscosity, 353.15 K [mPa·s]
x2 = 0 | 0.32 | 0.678 | – | 1.76 | – | 34.4 | – | 11.6
x2 = 0.25 | – | 0.509 | 0.893 | 1.39 | – | 35.9 | 19.2 | 11.8
x2 = 0.5 | 0.298 | 0.61 | 1.03 | – | 87 | 37.9 | 20 | –
x2 = 0.75 | 0.261 | 0.569 | – | 1.57 | 92 | 39.5 | – | 12.5

CCCC[N+]1(C)CCCC1.O=S(=O)([N-]S(=O)(=O)C(F)(F)F)C(F)(F)F + CCC[N+]1(C)CCCC1.O=S(=O)([N-]S(=O)(=O)C(F)(F)F)C(F)(F)F
x1 = 1
Settings | electrical conductivity [S/m] | viscosity [mPa·s]
293.15 K | 0.222 | –
313.15 K | 0.471 | 42
333.15 K | 0.827 | 21.7
353.15 K | 1.23 | 12.9

CCCCCC[N+]1(C)CCCC1.O=S(=O)([N-]S(=O)(=O)C(F)(F)F)C(F)(F)F + CCC[N+]1(C)CCCC1.O=S(=O)([N-]S(=O)(=O)C(F)(F)F)C(F)(F)F
Settings | electrical conductivity, 293.15 K [S/m] | electrical conductivity, 313.15 K [S/m] | electrical conductivity, 333.15 K [S/m] | electrical conductivity, 353.15 K [S/m] | viscosity, 293.15 K [mPa·s] | viscosity, 313.15 K [mPa·s] | viscosity, 333.15 K [mPa·s] | viscosity, 353.15 K [mPa·s]
x1 = 0.25 | 0.268 | – | 1.02 | 1.54 | 89 | – | 20.6 | 12.6
x1 = 0.5 | 0.185 | 0.417 | 0.766 | – | 102 | 42.9 | 22.2 | –
x1 = 0.75 | 0.111 | 0.251 | 0.463 | 0.724 | 116 | 47.3 | 23.8 | 13.9
x1 = 1 | 0.118 | 0.272 | 0.525 | 0.86 | – | 52.7 | 25.9 | 14.9
